Assay results published in US20190298717A1 (BOARD OF REGENTS, THE UNIVERSITY OF TEXAS SYSTEM, priority 2016, published 2019).
“Also recorded” adds a separate entry of the source.

Tests used:
[1] = tested on: SH-SY5Y cells; assay: Mitochondrial membrane potential (TMRE); assay type: cell-based, human; settings: hydralazine 0, 10, 20 μM; isoniazid 20 μM
Procedure: (§1) Cells were stained by TMRE to tag active mitochondria. Florescence signal was quantified by Flow Jo software. […] ATP levels were measured by bioluminescent detection of luciferase activity. All data are presented normalized to cell number.
(§2) The mitochondrial membrane potential was measured as an indicator of cellular energetics and ATP content.

[2] = tested on: Nrf2 knockdown SH-SY5Y cells; settings: Nrf2 siRNA knockdown, 24 h
Procedure: (§3) GSH is regulated by the rate-limiting enzyme GCL consisted of GCLc and GCLm subunits. […] The inventors then used extracellular lactate dehydrogenase cytotoxicity assay to measure cell survival.
Cell Viability and Cytotoxicity Assay. Cell growth was analyzed using the MTT cell viability assay. Briefly, at the end of incubation/treatment, MTT reagent was diluted in culture medium and aliquoted into each well. After incubation for 2 hours, the medium was aspirated and DMSO was aliquoted into each well to disrupt the cells and dissolve the intracellular MTT dyes. Absorbance was read at 570 nm wavelength in a 96-well plate reader. Cell toxicity was detected using a LDH cell toxicity assay kit (Promega, Fitchburg Wis.). This is a coupled enzymatic assay that detects a visible color signal initially described by Nachlas et. al. The reagent contained excess concentrations of lactate and NAD+as substrates to drive the LDH reaction and produce NADH. In the presence of diaphorase, NADH drives the enzyme-catalyzed conversion of iodonitro-tetrazolium violet to a red formazan product. Briefly, DMEM medium was withdrawn from each well of the plate after treatment and briefly centrifuged to get rid of floating cells or cell debris. […] The absorbance was read at 490 nm in a 96-well plate reader. […]

[3] = tested on: GSH and GSSG; settings: SH-SY5Y, 10 μM, 24 h
Procedure: as §3
Measurement of GSH/GSSG. The intracellular GSH and GSSG content were determined using a GSH/GSSG-Glo Assay kit (Promega, Fitchburg Wis.) following the manufacturer's instructions. Briefly, after treatment, half of the cells were lysed using total lysis buffer and the other GSSG lysis buffer for 5 minutes. Luciferin generation reagents (luciferin-NT plus Glutathione-S-Transferase) were then added into each well, followed by incubation for 30 minutes. Finally, luciferin detection reagents including Ultra-Glo™ Luciferase were aliquoted into each well. After 10-minute incubation, luminescence was read in a 96-well plate reader. GSH level was calculated by subtracting GSSG level from the total, and GSH/GSSG ratio was calculated as ([Total]−[GSSG])/[GSSG].

[4] = tested on: HEKTauP301S cells; settings: 20 μM Aβ (1-42), 5 and 10 μM, 24 hours
Procedure: The data represents as percent cell viability normalized to DMSO treated control cells. The values are mean percent of two biological experiments performed in six replicates. […] After treatment Western blot analysis was performed to check the levels of p-GSK3β and total GSK3β in addition to p-Tau and total Tau level. […] Densitometry values were normalized using actin as internal control. All western blot analysis (FIG. 19B, 19C) values are mean±SD from three biological independent experiments (shown in the right panel).
To mimic the cellular environment of AD disease a stable HEK293 cell line (HEKTauP301S) overexpressing mutated full length Tau (P301S) was used.

[5] = tested on: C. elegans; assay: Rotenone stress test in worms; assay type: in vivo
Description: The inventors again used rotenone to elicit PD-like changes.
Rotenone stress test. […] After 3 days young adult worms were transferred to fresh NGM plates either preloaded with rotenone alone or rotenone plus any of the abovementioned compounds. Every worm was subjected to prodding test with a worm pick every day. A worm was scored as dead when not responding to three repeated proddings. Survival curve was plotted using Prism 7.

[6] = tested on: Nrf2 pathway; settings: SH-SY5Y, 10 μM, 24 h
Procedure: Cell culture in SILAC media and Lysate Preparation. SHY-SY5Y cells were grown in Dulbecco's modified Eagle's medium containing either unlabeled L-Proline, L-arginine (Argo) and L-lysine (Lyso) or L-Proline, heavy isotope-labeled L-arginine-^13C6^14N4(Arg^10) and L-lysine-^13C6-^15N2 (Lys^8) (Cambridge Isotope Laboratories, Inc.) supplemented with 10% dialyzed fetal bovine serum (Thermo Fischer, Waltham, Mass.). […] After treatment, cells were harvested by trypisinization, washed three times with cold PBS and lysed in a buffer containing 6M Urea, 2M Thio-urea, 1% SDS and 100 mM Tris/HCl, pH 8.0 with protease (Thermo Fischer, Waltham, Mass.) and phosphatase inhibitors. After incubation for 15 min at RT and sonication, the samples were clarified by centrifugation for 15 min at 20,000×g. Protein content was determined using the 660 nM protein assay kit (Thermo Fisher, Waltham, Mass.) according to the manufacturer's instructions.
Protein Digestion and Peptide Fractionation. […] The mix digest (300 μg) was then fractionated into six fractions via strong cation exchange (SCX). […]
Mass Spectrometry for SILAC. All the fractions were analyzed using a Q-Exactive HF mass spectrometer (Thermo Electron, Burlingame, Calif.) coupled to an Ultimate 3000 RSLCnano HPLC systems (Thermo Electron, Sunnyvale Calif.). […]

[7] = tested on: SH-SY5Y cells; settings: 0, 10, 20 μM, 3 days
Procedure: as §1, §2

[8] = tested on: HEK293 overexpressing mutated tau-RD (P301L/V337M), Clone 9; settings: 10 μM, 48 h
Procedure: Two monoclonal cell lines of HEK293 overexpressing mutated tau-RD (repetitive domain; P301L/V337M) were selected; 1) Clone 1: used as control expressing truncated tau from amino acid 244 to 372, with P301L/V337M mutations which produces soluble non-toxic tau, and 2) Clone 9: which generates an aggregated form of tau (11). Three parameters were measured: cell viability, NAD, and ATP content.

[9] = tested on: SKN-1
Procedure: (§4) Western Blot Analysis. Protein expression was determined by Western blot analysis. Equal amount of protein from each sample was run in Tris-glycine SDS PAGE gel, followed by transferring to PVDF membrane. After blocking the membrane with 5% milk for 1 hour at room temperature, the membrane was incubated further for 2 hours with antibodies specific for target proteins: Nrf2, pNrf2(S40) from Novus (Littleton, Colo.); Keap1, HO-1, NQO1, GCLc, GCLm and lamin B1 from Cell Signaling (Danvers, Mass.); GAPDH from Santa Cruz (Dallas, Tex.); β-Actin from Thermo Fisher (Waltham, Mass.). The membrane was subsequently incubated with species-specific HRP-conjugated secondary antibody followed by incubation with chemiluminescence substrate and imaging. The band intensity of each of the target proteins was quantified using ImageQuant software (GE Healthcare, Sweden). Western blot analysis on worm lystaes was done similarly. […] Equal amounts of protein were run on the gel and SKN-1 protein level was detected using anti-GFP antibody.

[10] = tested on: GCLc, GCLm, HO-1, and NQO-1; settings: SH-SY5Y, 24 h
Procedure: as §3, §4

[11] = tested on: neuropeptide Y, synaptotagmin; settings: data not shown
Description: Neuronal plasticity, defined as the brain's ability to form new neural connections, allows the neurons to compensate for injury and disease and to adjust their activities in response to new situations or changes in their environment.

NNc1nncc2ccccc12 [Hydralazine]
mitochondrial membrane potential / mitochondrial function (TMRE) [1]: improves mitochondrial function in a dose dependent manner
protection from H2O2-induced cytotoxicity in Nrf2 knockdown cells (LDH) [2]: no protection
GSH/GSSG ratio, higher [3]: 5%
intracellular GSH [3]: increased GSH
viability under Aβ (1-42)-induced toxicity [4]: protects Tau-overexpressing cells
protection against rotenone-induced death ([5]; 100 μM pretreatment, rotenone 50 μM): protected from rotenone; also recorded: significantly protected
protection against rotenone in skn-1(zu135) mutant compared to N2 ([5]; skn-1(zu135)): sharply decreased
Nrf2 pathway activation, IPA Z score [6]: 0.156
total ATP content [7]: elevated ATP level in a concentration dependent manner
cell viability, NAD, and ATP content of Clone 9 [8]: shows improvement in all three aspects
expression of SKN-1 isoforms (B and C) by Western blot ([9]; 100 μM, 72 hours): showed increases
signal intensity and localization of SKN-1::GFP in intestinal nuclei and ASI neurons ([9]; in vivo): significantly increased
HO-1 upregulation [10]: 30%
NQO-1 upregulation [10]: 40%
expression of GCLc, GCLm, HO-1, and NQO-1 ([10]; Western blotting): significant increase in expression
increase of expression of neuropeptide Y [11]: 3 fold
increase of expression of synaptotagmin [11]: ~2.5 fold
